Experimental data from patent US12016841B2, “Methods and compositions for treatment of presbyopia, mydriasis, and other ocular disorders” (Ocuphire Pharma, Inc., priority 2018, dated 2024).
Structures can show the parent of a compound that is named as a salt.

Test system: patients with pupil sizes of at least 7 mm in diameter under dim light conditions
Experiment: Pupil diameter after one drop of 0.2%, 0.4% or 0.8% (w/v) phentolamine mesylate solution (clinical study, NeurOptics pupilometer)
Assay type: in vivo, human
Protocol: Reduction in pupil diameter can be analyzed and characterized using procedures such as those described below in which a phentolamine mesylate solution was administered to patients' eyes and change in pupil diameter was measured and characterized. […] The phentolamine mesylate solution contained either 0.2% (w/v) phentolamine mesylate, 0.4% (w/v) phentolamine mesylate, or 0.8% (w/v) phentolamine mesylate.
Sixteen patients were randomized into four groups (of four subjects each). Each group was treated on three successive study visits separated by at least 4 days with one drop of ophthalmic oxymetazoline solution (Visine LR®) in each eye followed by one drop test article in each eye. The test article was a 0.2% (w/v) phentolamine mesylate solution, 0.4% (w/v) phentolamine mesylate solution, 0.8% (w/v) phentolamine mesylate solution, or placebo. Test articles contained the designed amount of phentolamine mesylate in a solution of Tears Naturale II® (from Alcon Labs). Placebo was just Tears Naturale II® (from Alcon Labs). Tears Naturale II® (from Alcon Labs) contains Dextran 70 (0.1% by weight), Hydroxypropyl Methylcellulose 2910 (0.3% by weight), Polyquaternium-1 (0.001% by weight), potassium chloride, water (purified), sodium borate, sodium chloride, and hydrochloric acid and/or sodium hydroxide as necessary to adjust the pH. The patients' pupil diameters were recorded at baseline (i.e., prior to treatment administration), and at 30 minutes, 1 hour, 2 hours, 4 hours, and 8 hours after administration of test articles. Total study duration was approximately nine hours.
Pupil diameters were measured to within 0.1 mm for each eye at baseline and each subsequent time point using a NeurOptics™ pupilometer. Comparisons of changes in mean values within treatment groups were tested for significance using two-tailed paired two sample t-tests with a threshold for significance set at p<0.01 (Bonferroni Correction for multiple paired t-tests). Differences between treatment groups with respect to mean values for pupil size over the course of the study were tested for significance using repeated measure ANOVA (which discards data from subjects lacking any data points). Differences in means between treatment groups at individual time points were tested for significance using one-way ANOVA.

SMILES: Cc1ccc(N(CC2=NCCN2)c2cccc(O)c2)cc1 [phentolamine mesylate]
- mean pupil diameters compared to placebo (ad hoc Fisher's tests) (any concentration, 2, 4 and 8 hours): significant differences in mean pupil diameters
- mean changes in pupil diameters from baseline as a function of time (over the course of the study): significant reductions in pupil size

SMILES: Cc1ccc(N(CC2=NCCN2)c2cccc(O)c2)cc1 [phentolamine]
- differences in mean pupil diameters between different doses (any time point): no statistically significant differences
- mean pupil diameters (one hour post treatment): lower
